In ChEMBL document CHEMBL4219043, “Beyond the Rule of 5: Lessons Learned from AbbVie's Drugs and Compound Collection” (J Med Chem, 2018):

Key:
[1] = biological target: Apoptosis regulator Bcl-2 (Homo sapiens, UniProt P10415); assay: Inhibition of Bcl2 (unknown origin)
MOLT-4 = assay: Antiproliferative activity against human MOLT4 cells in presence of 10% human serum; assay type: functional, cell-based
RS4-11 = assay: Antiproliferative activity against human RS4:11 cells in presence of 10% human serum; assay type: functional, cell-based
[2] = Oral bioavailability in dog; assay type: ADME, organism-based, Canis lupus familiaris; details: in vivo

Apoptosis regulator Bcl-2, sequence (P10415 whole entry): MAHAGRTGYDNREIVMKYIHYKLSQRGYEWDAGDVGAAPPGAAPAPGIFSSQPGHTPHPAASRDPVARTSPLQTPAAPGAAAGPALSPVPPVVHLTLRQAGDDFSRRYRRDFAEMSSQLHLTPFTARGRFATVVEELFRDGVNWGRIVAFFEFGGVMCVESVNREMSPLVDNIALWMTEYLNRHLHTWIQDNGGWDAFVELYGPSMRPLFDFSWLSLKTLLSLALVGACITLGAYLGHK

Row | Ki [1] | EC50 (MOLT-4) | EC50 (RS4-11) | bioavailability [2] | Compound
1 | < 0.01 nM | > 5000 nM | 6 nM |  | CO[C@H]1CC[C@H](CNc2ccc(S(=O)(=O)NC(=O)c3ccc(N4CCN(CC5=C(c6ccc(Cl)cc6)CC(C)(C)CC5)CC4)cc3Oc3cnc4[nH]ccc4c3)cc2[N+](=O)[O-])CC1 [A-1211212]
2 |  | 303 nM | 112 nM | 48% | CC1(C)CCC(c2ccc(Cl)cc2)=C(CN2CCN(c3ccc(C(=O)NS(=O)(=O)c4ccc(N[C@H](CCN5CCOCC5)CSc5ccccc5)c(S(=O)(=O)C(F)(F)F)c4)cc3)CC2)C1 [NAVITOCLAX]
